Consider eight compounds from US11453858B2, “Human plasma-like medium” (Whitehead Institute for Biomedical Research, priority 2016, dated 2022).

In one data set the target is T1, ODC domain of UMPS (Homo sapiens, UniProt P11172).
T1 sequence (P11172 1-480): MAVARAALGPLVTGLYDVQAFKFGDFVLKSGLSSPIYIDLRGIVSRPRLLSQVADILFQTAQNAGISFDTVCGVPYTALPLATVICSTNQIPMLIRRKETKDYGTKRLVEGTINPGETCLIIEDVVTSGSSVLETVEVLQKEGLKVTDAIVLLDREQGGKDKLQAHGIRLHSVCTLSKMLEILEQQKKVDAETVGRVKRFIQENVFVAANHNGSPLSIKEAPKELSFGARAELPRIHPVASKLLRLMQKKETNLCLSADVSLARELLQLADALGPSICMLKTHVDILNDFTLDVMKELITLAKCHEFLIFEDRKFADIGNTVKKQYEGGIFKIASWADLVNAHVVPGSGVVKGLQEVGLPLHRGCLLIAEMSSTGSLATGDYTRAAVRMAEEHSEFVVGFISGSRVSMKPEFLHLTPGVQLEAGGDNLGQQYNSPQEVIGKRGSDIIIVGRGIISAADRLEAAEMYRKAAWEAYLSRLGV
To be noted: literature; cited from earlier work.

The next data set deals with T2, recombinant UMPS (Homo sapiens, UniProt P11172).
T2 construct: The UMPS gene was amplified from the pDONR223-UMPS template using the primers JC624/JC625; made in house; host or cells: HEK-293T cells, transient transfection, anti-FLAG immunopurification
T2 sequence (P11172 2-480 limits assumed): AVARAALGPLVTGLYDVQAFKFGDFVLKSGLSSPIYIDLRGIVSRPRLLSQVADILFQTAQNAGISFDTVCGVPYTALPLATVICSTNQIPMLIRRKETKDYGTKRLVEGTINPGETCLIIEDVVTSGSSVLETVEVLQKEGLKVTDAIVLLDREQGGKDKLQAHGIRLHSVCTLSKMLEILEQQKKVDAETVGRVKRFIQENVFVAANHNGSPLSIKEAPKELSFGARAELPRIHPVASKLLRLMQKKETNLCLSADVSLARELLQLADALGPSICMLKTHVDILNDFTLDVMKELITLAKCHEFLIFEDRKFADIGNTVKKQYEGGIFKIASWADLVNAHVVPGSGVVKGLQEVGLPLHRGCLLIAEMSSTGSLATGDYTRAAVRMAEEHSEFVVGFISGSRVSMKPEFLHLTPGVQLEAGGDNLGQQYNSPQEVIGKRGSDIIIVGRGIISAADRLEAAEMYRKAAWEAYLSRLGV
As to the kind of experiment: in vitro UMPS activity assay (LC/MS detection of OMP and UMP). The class given is biochemical. To be noted: for UMP production by UMPS / abundance of OMP: increasing concentrations of inhibitor. How it is done:
An UMPS mutant (Y37A, R155A), which was designed based on a recently deposited structure of the OPRT domain of human UMPS (Protein Data Bank entry 2WNS, chains A and B) (FIG. 12), had no activity and served as a negative control in the assay.
For metabolite profiling of LIMPS activity assay samples, reaction mixtures were extracted as described (see LIMPS activity assay) and 5 μL of each sample was injected for LC/MS analysis as described for profiling media samples, except that the mass spectrometer was operated in full scan, negative ionization mode only.
For orotate, PRPP, OMP, and UMP in UMPS assay samples, all settings as described for the tSIM scan used for FdUMP and FUMP were identical except that the maximum integration time was 200 msec, and the target masses were 155.0088 (corresponding to orotate), 323.0286 (corresponding to UMP), 367.0184 (corresponding to OMP), and 388.9445 (corresponding to PRPP).
For transfection of HEK-293 T cells, 4 million cells were plated in 15 cm culture dishes. After 24 hr, cells were transfected with 15 μg of pLJC2-UMPS-3×FLAG or pLJC2-UMPS (Y37A, R155A)-3×FLAG using the polyethylenimine method (Boussif et al., 1995). After 48 hr, cells were rinsed one time with ice-cold PBS and then immediately lysed with lysis buffer (1% Triton X-100, 40 mM Tris-HCl pH 7.5, 100 mM NaCl, 5 mM MgCl2, 1 tablet of EDTA-free protease inhibitor (Roche 11580800; per 25 mL buffer), 1 tablet of PhosStop phosphatase inhibitor (Roche 04906845001; per 10 mL buffer)). The cell lysates were cleared by centrifugation at 21130 g for 10 min at 4° C. For anti-FLAG immunoprecipitation, the FLAG-M2 affinity gel (Sigma A2220) was washed 3 times in lysis buffer. For each experiment, 500 μL of a 50/50 slurry of the affinity gel was then added to a pool of clarified lysates collected from 5 individual 15 cm culture dishes, and incubated with rotation for 3 hr at 4° C. Following immunoprecipitation, the beads were washed 2 times in lysis buffer and 3 times with lysis buffer containing 500 mM NaCl. Recombinant protein was then eluted in lysis buffer containing 1 mg/mL FLAG peptide for 1 hr at 4° C. The eluent was isolated by centrifugation at 100 g for 4 min at 4° C. (BioRad micro bio-spin column 732-6204), buffer exchanged (Amicon Ultra 30K NMWL) against 20 volumes of storage buffer (40 mM Tris-HCl pH 7.5, 100 mM NaCl, 1.5 mM dTT), mixed with glycerol (final concentration 15% v/v), and finally snap-frozen with liquid nitrogen and stored at −80° C. Protein samples were quantified using Bradford reagent and a BSA standard, and verified by 12% SDS-PAGE.
Reactions of each purified LIMPS variant (20-40 nM enzyme) with orotate (100 μM) and PRPP (300 μM) were carried out at 37° C. in 20 mM Tris-HCl pH 7.5, 5 mM Na2HPO4, […], 2 mM 2 mM dTT, 100 μM EDTA (adapted from (Han et al., 1995)), and various concentrations of putative inhibitors in a total volume of 100 μL. Following 20 min incubation, a 15 μL aliquot of the reaction mixture was removed and immediately added to 85 μL ice-cold 80% methanol for metabolite extraction, vortexed for 5 min, and centrifuged at 21130 g for 1 min at 4° C.
Stock solutions of 6-azauridine, 6-aza-UMP, 9-methyluric acid, allantoin, allopurinol, and uric acid were made up fresh at 200 mM in 1 M NaOH, and upon appropriate dilutions, had little effect on reaction pH.
An OMP chemical standard was not available.

In data set [1] the test system is certain cancer cell lines. As to conditions: Schwartz and Handschumacher, 1979; cited from earlier work.
A further data set has as its system K562 cells. As to the kind of experiment: metabolite profiling of K562 cells (intracellular pyrimidine pathway metabolites). The class given is cell-based, human. As for the experimental part: To determine which component(s) of HPLM^+dIFS affects the de novo pyrimidine synthesis pathway, K562 cells were cultured in HPLM^+dIFS derivatives lacking: (1) acetone, creatine, creatinine, formate, fructose, galactose, glutathione, glycerol, and hypoxanthine; (2) non-proteinogenic amino acids (8 metabolites); (3) water-soluble acids (8 metabolites); (4) urea; or (5) uric acid (FIG. 5A). […] HPLM^+dIFS contains uric acid at […], a concentration that is 40- and at least 500-fold greater than that of RPMI^+IFS and RPMI^+dIFS, respectively (FIG. 5C), and, importantly, its intracellular concentration reflects that of the corresponding culture medium (FIG. 5D).
To determine whether uric acid might cause inhibition of UMPS, an established UMPS inhibitor was studied to see if it had similar effects on the de novo pyrimidine biosynthesis pathway as uric acid in disclosed cells. […] Using LC/MS-based metabolite profiling, a species whose mass-to-charge ratio (m/z) matched the predicted m/z of allopurinol ribonucleotide was detected, and the magnitude correlated with the concentration of allopurinol in the media (FIG. 11D). Importantly, this species could be distinguished from its isomer, IMP, by their differing chromatographic retention times. […] However, a metabolite peak consistent with a putative uric acid ribonucleotide was not detected.
(§1) After 24 hr incubation, cells were centrifuged at 250 g for 5 min, resuspended in 1 mL ice-cold 0.9% sterile NaCl, and again centrifuged at 250 g for 5 min at 4° C. Metabolites were extracted in a 1 mL solution of 80% methanol containing 10 ng/mL phenylalanine-d8 as an internal standard. Following a 10 min vortex and centrifugation for […] 10 min at 4° C., samples were dried under nitrogen gas. Dried samples were stored at −80° C. and then resuspended in 100 μL water; 4 μL of each cell sample was injected for LC/MS analysis as described for profiling media samples. For all experiments, an additional culture replicate was set up identically and used for measuring cell number and volume, which were each measured using a Beckman Z2 Coulter Counter with a diameter setting of 8-30 μm.

Data set [2] concerns six hematological cancer cell lines. Briefly: metabolite profiling of six hematological cancer cell lines. The class given is cell-based, human. To be noted: 350 μM uric acid added to RPMI+IFS, compared to RPMI+IFS. As for the experimental part: To test the hypothesis that culturing cells in a medium that better mimics the metabolic composition of human plasma alters cellular metabolism compared to that in established media, the metabolite profiles of cells cultured in HPLM^+dIFS were compared to those in RPMI^+IFS or RPMI^+dIFS.
as §1

The next data set has as its system NOMO1 cells. Briefly: 5-FU treatment for LC/MS (intracellular 5-FU, FdUMP, FUMP). As to conditions: 20 μM 5-FU, 24 hr.

Molecules are shown by their SMILES.

`O=c1cnn([C@@H]2O[C@H](COP(=O)(O)O)[C@@H](O)[C@H]2O)c(=O)[nH]1` [6-aza-UMP]: the “inhibition of the ODC domain of UMPS” value at ODC domain of UMPS was “competitively inhibit the ODC domain of UMPS”. Also, the “UMP levels relative to reactions containing vehicle” value on recombinant UMPS (6-aza-UMP at 50 μM) is listed as roughly 3%. Moreover, on recombinant UMPS, the “UMP production by UMPS” value is given as “dose-dependently decreased UMP production by UMPS” and the “abundance of OMP” value is recorded as “dramatically increased the abundance of OMP”.
Take `O=c1[nH]cnc2c1cnn2C1O[C@H](COP(=O)(O)O)[C@@H](O)[C@H]1O` (stereo partly drawn) [allopurinol ribonucleotide]: the “inhibition of the ODC domain of UMPS” value on ODC domain of UMPS is “competitively inhibit the ODC domain of UMPS”.
In the case of `O=c1cnn([C@@H]2O[C@H](CO)[C@@H](O)[C@H]2O)c(=O)[nH]1` [6-azauridine], at recombinant UMPS, the “direct inhibition of UMPS” value is “did not directly inhibit UMPS”.
As to `NC(=O)NC1NC(=O)NC1=O` (stereo not drawn) [allantoin], the “direct inhibition of UMPS” value at recombinant UMPS was “did not directly inhibit UMPS”.
On to `Oc1ncnc2[nH]ncc12` [allopurinol], for which, in data set [1], the “sensitivity of cancer cell lines to 5-FU” value is recorded as “reduces the sensitivity of certain cancer cell lines to 5-FU”. The “direct inhibition of UMPS” value at recombinant UMPS is reported as “did not directly inhibit UMPS”. Also, the “levels of carbamoylaspartate, dihydroorotate, orotate, orotidine, and OMP” value with K562 cells (HPLM+dIFS lacking uric acid, increasing concentrations of allopurinol) is listed as “dose-dependently increased the levels”. In addition, the “decrease in abundance of UTP” value in the data set on K562 cells (highest tested concentration of allopurinol) is listed as roughly 30%.
As for `O=c1[nH]c(=O)c2[nH]c(=O)[nH]c2[nH]1` [uric acid], on recombinant UMPS, the “direct inhibition of UMPS” value is “direct inhibitor of the ODC domain of UMPS”, the “UMP production by UMPS” value is listed as “dose-dependently inhibited UMP production by UMPS” and the “abundance of OMP” value was “increased OMP”. In addition, the “UMP levels relative to reactions containing vehicle” value at recombinant UMPS (uric acid at 1 mM) was roughly 30%. For the same compound, in data set [2], the UTP abundance result is listed as “cell line-dependent effects on UTP abundance”; the “orotate and orotidine levels” value was “greatly boosted orotate and orotidine levels”. Besides, the “orotate and orotidine abundances” value in the data set on K562 cells (HPLM+dIFS containing increasing concentrations of uric acid) is “dose-dependently increased orotate and orotidine abundances”. Further, the “orotate and orotidine levels on removal of the component from HPLM+dIFS” value in the data set with K562 cells (dropout formulations of HPLM+dIFS) was “reduced orotate and orotidine levels to those of cells cultured in RPMI”. In addition, the “accumulation of OMP” value with K562 cells (highest tested concentration (700 μM)) is recorded as “led to a detectable accumulation of OMP”.
Regarding `Cn1c(=O)[nH]c2c(=O)[nH]c(=O)[nH]c21` [9-methyluric acid], the “direct inhibition of UMPS” value on recombinant UMPS is “did not directly inhibit UMPS”. In addition, the “levels of orotate, orotidine, or the other intermediates in the de novo pyrimidine biosynthesis pathway” value in the data set with K562 cells (350 μM in HPLM+dIFS, compared to HPLM+dIFS lacking uric acid) is recorded as “did not alter the levels”.
For the compound `O=c1[nH]cc(F)c(=O)[nH]1` [5-FU, 5-Fluorouracil], the FUMP levels entry in the data set with NOMO1 cells (uric acid-containing HPLM+dIFS) is “below the limit of detection”. Moreover, in the data set on NOMO1 cells (uric acid-containing HPLM+dIFS vs lacking uric acid), the “intracellular abundances of FdUMP and 5-FU” value is on record as “little effect”.
